Data reported in patent publication US20050153998A1, “Tetrahydroisoquinoline or isochroman compounds” (priority 2003, published 2005).

Biological target: T1, human ORL1 receptor (Homo sapiens, UniProt P41146)
T1 construct: expressed in transfected cells; host or cells: HEK-293
Experiment: ORL1-receptor binding assay ([3H]nociceptin, SPA)
Conditions: human ORL1 receptor transfected HEK-293 cell membranes, 0.4 nM [3H]nociceptin; read-out: IC50 value with regard to binding activity for the ORL1 receptor
Method: The human ORL1 receptor transfected HEK-293 cell membranes were incubated for 45 min at 22° C. with 0.4 nM [^3H]nociceptin, 1.0 mg of wheat germ agglutinin-coated SPA beads and various concentrations of test compounds in a final volume of 200 μl of 50 mM HEPES buffer pH7.4 containing 10 mM MgCl2 and 1 mM EDTA. Non-specific binding was determined by the addition of 1 μM unlabeled nociceptin. After the reaction, the assay plate was centrifuged at 1,000 rpm for 1 min and then the radioactivity was measured by a Liquid Scintillation Counter.
Each percent NSB thus obtained was graphed as a function of compound concentration. A sigmoidal curve was used to determine 50% bindings (i.e., IC50 values).

T1 sequence (P41146 whole entry): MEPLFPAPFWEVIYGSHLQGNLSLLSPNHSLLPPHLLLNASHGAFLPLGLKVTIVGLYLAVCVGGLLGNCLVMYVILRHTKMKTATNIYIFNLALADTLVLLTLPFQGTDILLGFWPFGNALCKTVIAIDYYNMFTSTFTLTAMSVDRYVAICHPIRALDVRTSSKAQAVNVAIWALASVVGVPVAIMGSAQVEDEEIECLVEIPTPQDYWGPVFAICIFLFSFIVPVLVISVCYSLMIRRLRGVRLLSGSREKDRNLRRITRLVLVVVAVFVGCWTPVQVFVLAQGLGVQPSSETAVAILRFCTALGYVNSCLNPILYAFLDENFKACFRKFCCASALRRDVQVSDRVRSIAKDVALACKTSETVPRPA

Row | Compound | IC50 [nM]
1 | CN1CC2(CCN(CC3Cc4c(F)ccc(O)c4CN3)CC2)c2ccccc21 (centres unmarked) [Example 11, 5-Fluoro-3-[(1-methyl-1,2-dihydro-1′H-spiro[indole-3,4′-piperidin]-1′-yl)methyl]-1,2,3,4-tetrahydroisoquinolin-8-ol] | 7.4
2 | CN1C(=O)C2(CCN(CC3Cc4c(F)ccc(O)c4CN3)CC2)c2ccccc21 (centres unmarked) [Example 22, 1′-[(5-Fluoro-8-hydroxy-1,2,3,4-tetrahydroisoquinolin-3-yl)methyl]-1-methylspiro[indole-3,4′-piperidin]-2(1H)-one] | 4.9
